Data on 4 molecules can be found in patent publication US8222404B2, “[1,2,4]Thiadiazin-3-yl acetic acid compound and methods of making the acetic acid compound” (Anadys Pharmaceuticals, Inc., priority 2008, dated 2012).

The subject of this test is HCV Huh-luc/neo-ET replicon cells. Put plainly: Luciferase-Based HCV Replicon Assay (EC50 (1b)). It counts as cell-based. The note with it: 72 hours exposure, luciferase activity. The method in brief:
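Replicon cells seeded, then exposed 24 h later to a compound concentration series in triplicate for 72 h. Luciferase luminescence read; % inhibition vs no-compound control, with 100 nM BILN-2061 as background, used to derive EC50 (1b).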

For the molecule `CS(=O)(=O)NCc1csc2c1S(=O)(=O)N=C(C1=C(O)[C@@H]3[C@H]4CC[C@H](C4)[C@@H]3NC1=O)N2` [Example 80, N-[3-((1R,2S,7R,8S)-6-Hydroxy-4-oxo-3-aza-tricyclo[6.2.1.0^2,7]undec-5-en-5-yl)-1,1-dioxo-1,4-dihydro-1λ^6-thieno[2,3-e][1,2,4]thiadiazin-7-ylmethyl]-methanesulfonamide], the EC50 (Hepatitis C virus) is more than 1000 nM.

As to `CC(C)CCN1C(=O)C(C2=NS(=O)(=O)c3c(CNS(C)(=O)=O)csc3N2)=C(O)C2CCCCCC21` (racemic) [Example 138, (rac-cis)-N-{3-[4-Hydroxy-1-(3-methyl-butyl)-2-oxo-2,4a,5,6,7,8,9,9a-octahydro-1H-cyclohepta[b]pyridin-3-yl]-1,1-dioxo-1,4-dihydro-1λ^6-thieno[2,3-e][1,2,4]thiadiazin-7-ylmethyl}-methanesulfonamide], the EC50 (Hepatitis C virus) was 20 to 100 nM.

Regarding `CC(C)(C)CCN1C(=O)C(C2=NS(=O)(=O)c3c(CNS(C)(=O)=O)csc3N2)=C(O)[C@@H]2C3CCC(CC3)[C@@H]21` [Example 93, N-{3-[(2S,7R)-3-(3,3-Dimethyl-butyl)-6-hydroxy-4-oxo-3-aza-tricyclo[6.2.2.0^2,7]dodec-5-en-5-yl]-1,1-dioxo-1,4-dihydro-1λ^6-thieno[2,3-e][1,2,4]thiadiazin-7-ylmethyl}-methanesulfonamide], the EC50 (Hepatitis C virus) was not above 5 nM.

`CC(C)(C)CCN1C(=O)C(C2=NS(=O)(=O)c3c(CNS(C)(=O)=O)csc3N2)=C(O)C2C3CCC(C4CC43)C21` (racemic) [Example 25, (rac-di-exo)-N-{3-[3-(3,3-Dimethyl-butyl)-6-hydroxy-4-oxo-3-aza-tetracyclo[6.3.2.0^2,7.0^9,11]tridec-5-en-5-yl]-1,1-dioxo-1,4-dihydro-1λ^6-thieno[2,3-e][1,2,4]thiadiazin-7-ylmethyl}-methanesulfonamide] showed an EC50 not above 5 nM.
